Target: T1, recombinant His-tagged cytoplasmic domains of TRKA receptor (NTRK1, PV3144, aa 441-796) (Homo sapiens, UniProt P04629)
T1 construct: aa 441-796; His; purchased Invitrogen PV3144
Experiment: Isolated TRK enzyme assay (HTRF KinEASE-TK, PV3144 TrkA enzyme assay)
Assay type: biochemical
Settings: 4 nM enzyme, 40 uM ATP, 35 min, arithmetic mean where more than one reading
Procedure, shortened: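 Enzyme and ATP were preincubated with compound for 20 min at room temperature in buffer with 10 mM MgCl and 2 mM DTT. TK-substrate-Biotin was then added (1 uM final) and the reaction run for an enzyme-specific optimized time. Phosphorylation was read by HTRF, and IC50 values came from sigmoid fits of percent inhibition normalized to plate controls, averaged over replicate readings.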

T1 sequence (P04629 441-796): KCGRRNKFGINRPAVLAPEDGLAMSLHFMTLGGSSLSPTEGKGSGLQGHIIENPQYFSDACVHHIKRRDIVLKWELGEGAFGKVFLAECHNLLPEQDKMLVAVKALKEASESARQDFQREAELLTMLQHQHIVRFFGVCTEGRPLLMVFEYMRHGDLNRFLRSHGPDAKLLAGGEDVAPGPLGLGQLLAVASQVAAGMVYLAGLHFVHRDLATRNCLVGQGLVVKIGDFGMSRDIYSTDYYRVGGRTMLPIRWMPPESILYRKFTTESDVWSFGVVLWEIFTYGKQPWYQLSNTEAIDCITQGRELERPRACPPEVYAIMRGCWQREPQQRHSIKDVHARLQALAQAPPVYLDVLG

| SMILES | IC50 [nM] |
| --- | --- |
| Cn1cc(-c2ccc(OC3CCN(C(=O)Nc4ccc(OC(F)(F)F)cc4F)CC3)c(C(N)=O)c2)cn1 [Example 140, 4-(2-carbamoyl-4-(1-methyl-1H-pyrazol-4-yl)phenoxy)-N-(2-fluoro-4-(trifluoromethoxy)phenyl)piperidine-1-carboxamide] | 10.3 |
| Cn1cnc(-c2ccc(O[C@H]3[C@@H]4CO[C@H]3CN(C(=O)Cc3ccc(OC(F)(F)F)cc3)C4)c(C(N)=O)c2)c1 [Example 158, 5-(1-methyl-1H-imidazol-4-yl)-2-{[(1S,5S,8S)-3-{[4-(trifluoromethoxy)phenyl]acetyl}-6-oxa-3-azabicyclo[3.2.1]oct-8-yl]oxy}benzamide] | 18.4 |
| NC(=O)c1cc(-c2cc[nH]n2)ccc1OC1CCN(C(=O)Cc2ccc(OC(F)(F)F)cc2)CC1 [Example 177, 5-(1H-pyrazol-3-yl)-2-[(1-{[4-(trifluoromethoxy)phenyl]acetyl}piperidin-4-yl)oxy]benzamide] | 12.3 |
| Cn1cc(-c2cnc(OC3CCN(C(=O)Cc4ccc(OC(F)(F)F)cc4)CC3)c(C(N)=O)c2)cn1 [Example 182, 5-(1-methyl-1H-pyrazol-4-yl)-2-[(1-{[4-(trifluoromethoxy)phenyl]acetyl}piperidin-4-yl)oxy]pyridine-3-carboxamide] | 15.1 |
| NC(=O)c1cc(-c2c[nH]nn2)ccc1OC1CCN(C(=O)Cc2ccc(OC(F)(F)F)cc2)CC1 [Example 136, 5-(1H-1,2,3-triazol-4-yl)-2-((1-(2-(4-(trifluoromethoxy)phenyl)acetyl)piperidin-4-yl)oxy)benzamide] | 5.3 |
| NC(=O)c1cc(-c2c[nH]c(C3(O)COC3)n2)ccc1OC1CCN(C(=O)Cc2ccc(OC(F)(F)F)cc2)CC1 [Example 56, 5-[2-(3-hydroxyoxetan-3-yl)-1H-imidazol-5-yl]-2-[(1-{[4-(trifluoromethoxy)phenyl]acetyl}piperidin-4-yl)oxy]benzamide] | 5.1 |
| Cc1nc(C)c(-c2ccc(OC3CCN(C(=O)Cc4ccc(OC(F)(F)F)cc4)CC3)c(C(N)=O)c2)s1 [Example 143, 5-(2,4-dimethyl-1,3-thiazol-5-yl)-2-[(1-{[4-(trifluoromethoxy)phenyl]acetyl}piperidin-4-yl)oxy]benzamide] | 16.5 |
| NC(=O)c1cc(-c2c[nH]c(C(F)(F)F)n2)cnc1O[C@@H]1CCN(C(=O)Cc2ccc(OC(F)(F)F)cc2)C[C@@H]1F [Example 183, 2-{[(3S,4R)-3-fluoro-1-{[4-(trifluoromethoxy)phenyl]acetyl}piperidin-4-yl]oxy}-5-[2-(trifluoromethyl)-1H-imidazol-4-yl]pyridine-3-carboxamide] | 7.12 |
| NC(=O)c1cc(-c2cccnc2)ccc1OC1CCN(C(=O)Cc2ccc(OC(F)(F)F)cc2)CC1 [Example 150, 5-(pyridin-3-yl)-2-[(1-{[4-(trifluoromethoxy)phenyl]acetyl}piperidin-4-yl)oxy]benzamide] | 11 |
| Cn1cnc(-c2ccc(O[C@H]3[C@@H]4CC[C@H]3CN(C(=O)Cc3ccc(OC(F)(F)F)cc3)C4)c(C(N)=O)c2)c1 [Example 46, 5-(1-methyl-1H-imidazol-4-yl)-2-(((1R,5S,8r)-3-(2-(4-(trifluoromethoxy)phenyl)acetyl)-3-azabicyclo[3.2.1]octan-8-yl)oxy)benzamide] | 2.2 |
| Cc1n[nH]c(C)c1-c1ccc(OC2CCN(C(=O)Cc3ccc(OC(F)(F)F)cc3)CC2)c(C(N)=O)c1 [Example 102, 5-(3,5-dimethyl-1H-pyrazol-4-yl)-2-[(1-{[4-(trifluoromethoxy)phenyl]acetyl}piperidin-4-yl)oxy]benzamide] | 10.1 |
| CC1CN(C(=O)Cc2ccc(OC(F)(F)F)cc2)CCC1Oc1ccc(-c2cn(C)cn2)cc1C(N)=O (racemic) [Example 50, Racemic 2-((3-methyl-1-(2-(4-(trifluoromethoxy)phenyl)acetyl)piperidin-4-yl)oxy)-5-(1-methyl-1H-imidazol-4-yl)benzamide] | 3.6 |
| NCCn1cc(-c2ccc(OC3CCN(C(=O)Cc4ccc(OC(F)(F)F)cc4)CC3)c(C(N)=O)c2)cn1 [Example 138, 5-[1-(2-aminoethyl)-1H-pyrazol-4-yl]-2-[(1-{[4-(trifluoromethoxy)phenyl]acetyl}piperidin-4-yl)oxy]benzamide] | 7 |
| NC(=O)c1cc(-c2cn[nH]c2)ncc1O[C@H]1CCN(C(=O)Cc2ccc(OC(F)(F)F)cc2)C[C@@H]1F [Example 86, 5-{[(3S,4S)-3-fluoro-1-{[4-(trifluoromethoxy)phenyl]acetyl}piperidin-4-yl]oxy}-2-(1H-pyrazol-4-yl)pyridine-4-carboxamide] | 10.5 |
| CCc1ccc(CC(=O)N2CCC(Oc3ccc(-c4cnn(C)c4)cc3C(N)=O)CC2)cc1 [Example 153, 2-({1-[(4-ethylphenyl)acetyl]piperidin-4-yl}oxy)-5-(1-methyl-1H-pyrazol-4-yl)benzamide] | 19.3 |
| CC(C)(O)Cn1cc(-c2ccc(OC3CCN(C(=O)Cc4ccc(OC(F)(F)F)cc4)CC3)c(C(N)=O)c2)cn1 [Example 135] | 3.9 |

| SMILES | IC50 [nM] |
| --- | --- |
| Cn1cc(-c2ccc(OC3CCN(C(=O)Cc4ccc(OC5CC5)cc4)CC3)c(C(N)=O)c2)cn1 [Example 178, 2-[(1-{[4-(cyclopropyloxy)phenyl]acetyl}piperidin-4-yl)oxy]-5-(1-methyl-1H-pyrazol-4-yl)benzamide] | 8.57 |
| NC(=O)c1cc(-c2c[nH]c(C3(F)COC3)n2)ccc1OC1CCN(C(=O)Cc2ccc(OC(F)(F)F)cc2)CC1 [Example 117, 5-[2-(3-fluorooxetan-3-yl)-1H-imidazol-4-yl]-2-[(1-{[4-(trifluoromethoxy)phenyl]acetyl}piperidin-4-yl)oxy]benzamide] | 10.8 |
| CS(=O)(=O)Cn1cc(-c2cc(C(N)=O)c(O[C@@H]3CCN(C(=O)Cc4ccc(OC5CC5)cc4)C[C@@H]3F)cn2)cn1 [Example 35, 5-{[(3S,4R)-1-{[4-(cyclopropyloxy)phenyl]acetyl}-3-fluoropiperidin-4-yl]oxy}-2-{1-[(methylsulfonyl)methyl]-1H-pyrazol-4-yl}pyridine-4-carboxamide] | 7.7 |
| NC(=O)c1cc(-c2cnn(C[C@H](O)CO)c2)ccc1OC1CCN(C(=O)Cc2ccc(OC(F)(F)F)cc2)CC1 [Example 119, 5-{1-[(2S)-2,3-dihydroxypropyl]-1H-pyrazol-4-yl}-2-[(1-{[4-(trifluoromethoxy)phenyl]acetyl}piperidin-4-yl)oxy]benzamide] | 8 |
| NCc1ccc(-c2cnc(OC3CCN(C(=O)Cc4ccc(OC(F)(F)F)cc4)CC3)c(C(N)=O)c2)cc1 [Example 98, 5-[4-(aminomethyl)phenyl]-2-[(1-{[4-(trifluoromethoxy)phenyl]acetyl}piperidin-4-yl)oxy]pyridine-3-carboxamide] | 10.5 |
| Cn1cc(-c2ccc(OC3CCN(C(=O)Nc4ccc(OC5CC5)cc4)CC3)c(C(N)=O)c2)cn1 [Example 181, 4-[2-carbamoyl-4-(1-methyl-1H-pyrazol-4-yl)phenoxy]-N-[4-(cyclopropyloxy)phenyl]piperidine-1-carboxamide] | 19.3 |
| CNC(=O)Cn1cnc(-c2ccc(OC3CCN(C(=O)Cc4ccc(OC(F)(F)F)cc4)CC3)c(C(N)=O)c2)c1 [Example 128, 5-{1-[2-(methylamino)-2-oxoethyl]-1H-imidazol-4-yl}-2-[(1-{[4-(trifluoromethoxy)phenyl]acetyl}piperidin-4-yl)oxy]benzamide] | 6.1 |
| NC(=O)c1cc(-c2cn[nH]c2)ncc1O[C@@H]1CCN(C(=O)Cc2ccc(OC(F)(F)F)cc2)C[C@@H]1F [Example 85, 5-{[(3S,4R)-3-fluoro-1-{[4-(trifluoromethoxy)phenyl]acetyl}piperidin-4-yl]oxy}-2-(1H-pyrazol-4-yl)pyridine-4-carboxamide] | 1.7 |
| CS(=O)(=O)Cn1cc(-c2cnc(O[C@H]3CCN(C(=O)Cc4ccc(OC5CC5)cc4)C[C@@H]3F)c(C(N)=O)c2)cn1 [Example 30, 2-{[(3S,4S)-1-{[4-(cyclopropyloxy)phenyl]acetyl}-3-fluoropiperidin-4-yl]oxy}-5-{1-[(methylsulfonyl)methyl]-1H-pyrazol-4-yl}pyridine-3-carboxamide] | 4.8 |
| NC(=O)c1cc(-c2cn(CCO)nn2)ccc1OC1CCN(C(=O)Cc2ccc(OC(F)(F)F)cc2)CC1 [Example 174, 5-[1-(2-hydroxyethyl)-1H-1,2,3-triazol-4-yl]-2-[(1-{[4-(trifluoromethoxy)phenyl]acetyl}piperidin-4-yl)oxy]benzamide] | 19.1 |
| Cn1cc(-c2ccc(OC3CCN(C(=O)Cc4ccc(SC(F)(F)F)cc4)CC3)c(C(N)=O)c2)cn1 [Example 108, 5-(1-methyl-1H-pyrazol-4-yl)-2-{[1-({4-[(trifluoromethyl)sulfanyl]phenyl}acetyl)piperidin-4-yl]oxy}benzamide] | 2.7 |
| Cn1cnc(-c2cnc(O[C@@H]3CCN(C(=O)Cc4ccc(OC5CC5)cc4)C[C@@H]3F)c(C(N)=O)c2)c1 [Example 7, 2-{[(3S,4R)-1-{[4-(cyclopropyloxy)phenyl]acetyl}-3-fluoropiperidin-4-yl]oxy}-5-(1-methyl-1H-imidazol-4-yl)pyridine-3-carboxamide] | 1.4 |
| NC(=O)c1cc(-c2cnn(CCO)c2)ncc1OC1CCN(C(=O)Cc2ccc(OC(F)(F)F)cc2)CC1 [Example 175, 2-[1-(2-hydroxyethyl)-1H-pyrazol-4-yl]-5-[(1-{[4-(trifluoromethoxy)phenyl]acetyl}piperidin-4-yl)oxy]pyridine-4-carboxamide] | 17.1 |
| Cc1nn(C[C@@H](O)CO)c(C)c1-c1ccc(OC2CCN(C(=O)Cc3ccc(OC(F)(F)F)cc3)CC2)c(C(N)=O)c1 [Example 123] | 3.8 |
| NC(=O)c1cc(-c2cn(CCO)cn2)ccc1OC1CCN(C(=O)Cc2ccc(OC(F)(F)F)cc2)CC1 [Example 115, 5-[1-(2-hydroxyethyl)-1H-imidazol-4-yl]-2-[(1-{[4-(trifluoromethoxy)phenyl]acetyl}piperidin-4-yl)oxy]benzamide] | 4.4 |

Reference: patent US20170305857A1, “N-ACYLPIPERIDINE ETHER TROPOMYOSIN-RELATED KINASE INHIBITORS” (Pfizer Limited, priority 2014, published 2017)
